Results on 1 substance are retold here after patent US20170246137A1, “SULFESTROL FOR TREATING CANCER” (CHAMAELEO PHARMA BVBA, priority 2012, published 2017).

Where “and” joins values, the source holds several entries; their conditions need not be identical. Equal entries are not always repeated.

Data set [1] can be described thus: Concentration of Mono-Sulfestrol in pooled plasma samples, LC-UV quantification. The class given is in vivo, male Sprague Dawley rats. Particulars: 10 mg/kg of the labelled compound, rat, pooled 0.5-8 hrs. The procedure: The concentration of Mono-Sulfestrol in the pooled samples described in Example 6 was quantified by LC-UV quantification.
A calibration standard solution was prepared as 10,000 ng/mL by adding an appropriate amount of Mono-Sulfestrol into 20% acetonitrile/0.1% formic acid in water. The peak area of the standard solution and the sample were measured with the wavelength set at 200 to 360 nm. The concentration levels of Mono-Sulfestrol were estimated using peak area (Area) of the standard and unknown samples and concentration of the standard (Concstd) by the following equation:
Areaunknown/Areastd=Concunknown/Concstd
Concunknown=Concstd·(Areaunknown/Areastd)

Data set [2] relates to platelet-rich plasma (PRP). As to the kind of experiment: Platelet-aggregation-inducing effects in platelet-rich plasma, absorbance 630 nm. The class given is cell-based. The note with it: 7 minutes, human PRP. Here is the method: Blood necessary to generate PRP was obtained from 4 healthy human volunteers. 100 ml of fresh venous blood from each donor was isolated directly into tubes containing 1/10th volume of the anti-coagulant Tri-Sodium Citrate (3.2% w/v). The blood and anti-coagulant were immediately mixed and the final concentration of Tri-Sodium Citrate was 0.0106 M.
PRP was prepared by centrifugation of anti-coagulated blood at 180 g for 10 minutes at room temperature. The cloudy yellow supernatant containing the platelets was removed and placed into a clean polypropylene tube. Platelet-poor plasma (PPP) was prepared by centrifuging the remaining sample at 1,200 g for 20 minutes at room temperature. The PRP was adjusted to a suitable platelet count and absorbance at 630 nm by addition of PPP.
All three compounds were dissolved in 100% DMSO to give a stock concentration of 60 mM. […] […] 100 nM gamma thrombin (Cambridge bioscience) was used as control for platelet aggregation. 90 μl aliquots of PRP were added to 96 wells plates. A baseline absorbance reading was taken at 630 nm. 5 μl of the compounds and gamma thrombin control was added to the appropriate PRP.
The plates were incubated at room temperature for 7 minutes on a plate shaker with continuous shaking. A second A630 nm reading was made after the 7 minutes incubation to measure any platelet aggregation induced by the compounds.

The subject of data set [3] is MCF7. As to the kind of experiment: In vitro direct cytotoxicity, Cell titer Blue viability, 72 hrs. The procedure: (§1) Cells were maintained in vitro in RPMI 1640 containing 10% (v/v) heat inactivated FBS and 2 mM L-glutamine (growth media) at 37° C. in 5% CO2 and humidified conditions. Cells were harvested, washed, resuspended into growth medium and counted. The cells were re-suspended into assay media (RPMI 1640+1% (v/v) heat inactivated FBS+ and 2 mM L-glutamine) at 0.5-1×10^5 cells/ml (dependent upon cell type) and plated into 96-well assay plates (Corning, black-wall plates) in 50 ul/well aliquots.
(§2) Plates were incubated overnight at 37° C. in 5% humidified CO2 prior to addition of the compounds. […] Stocks of all compounds were then serially diluted. Final concentrations to which cells were exposed were 300, 150, 75, 37.5, 18.75, 9.4, 4.7, 2.3, 1.2, 0.6 μM. Positive control was Cisplatin. Cisplatin was diluted in 1% FBS media to give a stock concentration of 1 mM. Cisplatin stock was then serially diluted. Final concentrations to which cells were exposed were 100, 50, 25, 12.5, 6.3, 3.1, 1.6, 0.8, 0.4, 0.2 μM.
(§3) Plates were incubated for 72 hrs at 37° C. in 5% humidified CO2 after addition of the compounds. Viability of the cells was assessed with the Cell titer Blue™ (Promega) assay. 10 μl of Cell titer Blue™ reagents was added to each test/blank well. Plates were incubated 3 h at 37° C. in 5% humidified CO2 prior to analysis. Fluorescence was measured with a Flex II station plate reader. Excitation wavelength was 570 nm, emission wave length was 600 nm, cut off was 590 nm. Raw data was processed by GraphPad Prism to calculate mean, standard deviation and IC50 values.
(Alamar Blue is a resazurin reagent that responds to reducing activity.)

The test system of data set [4] is MDA-MB-231. Described as above. The procedure:
as §1, §2, §3

Data set [5] is described as follows: Metabolites in plasma after oral and intravenous administration, LC-MS/MS.
Experimental: Metabolites were identified after oral and intravenous administration of the compounds.
Each group consisted of three rats, giving a total of 12 animals. Compounds were dosed at 10 mg/kg for both oral and intravenous administration. A 0.9% saline solution was used as vehicle for oral and intravenous administration.
Prior to intravenous administration, the solution was filtered through a 0.22 μM filter. Oral dosing was performed using a oral gavage. Tail vein injection was used for intravenous administration.
At 0.5, 1, 2, 4, 6 and 8 hrs post administration, 0.25 ml blood was drawn from the animals and immediately transferred to prechilled microcentrifuge tubes containing 4 μl of K2-EDTA to prevent coagulation. Plasma was obtained by centrifugation of the plasma and stored at −70° C. until analysis. Plasma drawn from each individual rat was pooled according to the following schedule:
The pooled samples were analyzed using LC-MS/MS and the relative percentage of each metabolite in the pooled sample was measured on the basis of the mass spectrometric peak areas of the parent and its metabolites in the plasma.
The test system of data set [6] is MDA-MB-231 Dlux. The experiment in a line: Orthotopic spontaneous metastasis breast model, whole body bioluminescence. The class given is in vivo, female MF-1 nude mice. The note with it: for total flux, whole body bioluminescence: mono-Sulfestrol 60 mg/kg, di-Sulfestrol 80 mg/kg orally once a day. Here is the method: Female MF-1 nude mice (HsdOla:MF1-Foxn1nu, Harlan, UK) were divided into 3 groups of each 8 mice (n=8):
The mice were 5-6 weeks old at the start of the study and were maintained in sterile isolators within a barriered unit illuminated by fluorescent lights set to give a 12 hour light-dark cycle (on 07.00, off 19.00). The room was air-conditioned to maintain an air temperature range of 23±2° C. Sterile irradiated 2019 rodent diet (Harlan Teklad UK, product code Q219DJ1R2) and autoclaved water were offered ad libitum.
The MDA-MB-231 Dlux cells were maintained in vitro in RPMI containing 2 mM L-Glut and (Life Technologies, UK) and 10% (v/v) heat-inactivated foetal bovine serum (Sigma, Poole, UK) at 37° C. in 5% CO2 and humidified conditions. Cells were treated with Zeocin once a week at 0.4 mg/mL.
On the day of initiation cells were harvested from semi-confluent monolayers with 0.05% Trypsin-EDTA, washed twice in the culture medium and counted. Cells with viability of >90% were re-suspended, for in vivo administration, in 1:1 PBS:Matrigel at 2×10^6 cells/0.1 mL. Prior to injection, the cell suspension was homogenized and 0.1 mL of cell suspension was drawn into a 1 mL syringe. The cell suspension was then injected orthotopically into the lower left-side 2nd mammary fat pad of each mouse under anaesthesia (Medetomidine/Ketamine).
On day 7 after initiation and every six days thereafter, the mice were injected (s.c.) with 150 mg/kg D-Luciferin. 10 minutes following administration of D-Luciferin mice were anaesthetised and 15 minutes after administration they were placed into an imaging chamber (Spectrum CT) and imaged for luminescence (ventral view; whole body and shielding of the primary tumor). Images were captured and processed by Living Image 4.3.1 software (Caliper LS, US.).
On day 7 after initiation mice were assigned to groups such that there was a uniform mean bioluminescent signal between the groups.

As a reminder, the IC50 is the concentration needed to halve the response being measured. On to “4-(4-(4-oxidophenyl)hex-3-en-3-yl)phenyl sulfate [Mono-Sulfestrol]”, for which the “Mono-Sulfestrol concentration in pooled plasma sample” value in data set [1] (intravenous) was 630.0 ng/ml and 1.5 μM; in data set [1] (oral) it was 1150.6 ng/ml and 2.7 μM. In addition, the “Absorbance (630 nm)” value in data set [2] (2.3 μM, high absorbance = low aggregation) is listed as 0.274 ± 0.034; in data set [2] (4.7 μM), 0.277 ± 0.029; in data set [2] (9.4 μM), 0.272 ± 0.029; in data set [2] (18.75 μM), 0.275 ± 0.029; in data set [2] (37.5 μM) it was 0.278 ± 0.030; in data set [2] (75 μM) it was 0.281 ± 0.031. For the same substance, in data set [2] (150 μM), the “Absorbance (630 nm)” value was 0.283 ± 0.036. In addition, the “cytotoxicity in vitro (in words)” value in data set [3] (MCF7) and in data set [4] (MDA-MB231) was “cytotoxic” in each case. The IC50 is 85 µM in data set [3] (read-out: IC50 value, MCF7, hormone-dependent breast cancer cell line, 72 hrs) and 185 µM in data set [4] (read-out: IC50 value, MDA-MB-231, triple negative breast cancer cell line, 72 hrs). In addition, the “metabolic fate in rat plasma (in words)” value in data set [5] (10 mg/kg oral and intravenous) is reported as “undergoes minimal metabolic processing”. The “Relative Abundance” value is recorded as “IV: 86.99%” in data set [5] (pooled rat plasma after Mono-Sulfestrol 10 mg/kg IV) and “PO: 91.91%” in data set [5] (pooled rat plasma after Mono-Sulfestrol 10 mg/kg PO). In addition, the “total flux, whole body bioluminescence” value is 1.72 10^9 photons/second in data set [6] (Day 7 (before start of treatment)), 5.89 10^9 photons/second in data set [6] (Day 13) and 9.22 10^9 photons/second in data set [6] (Day 19). In addition, in data set [6] (oral, MDA-MB-231 Dlux in mice), the “effect on tumor progression (in words)” value is reported as “tumor progression inhibiting effect”.
